Key:
[1] = biological target: T1, Recombinant full-length human IDO1 (Homo sapiens, UniProt P14902); assay: IDO1 enzymatic assay (NFK quantified by LCMS); format: biochemical; details: 2 nM enzyme, 5 μM L-tryptophan, pH6.5, 30 minutes pre-incubation at RT; mean values when measured multiple times; read-out: hIDO activity (IC50 in nM)
T1 construct: Recombinant full-length human IDO1 with a N-terminal hexahistidine tag; hexahistidine (His6) (N); made in house; host or cells: E. coli
Protocol: 1) Testing Compounds for IDO Inhibitory Activity in an IDO1 Enzymatic Assay:
Recombinant full-length human IDO1 with a N-terminal hexahistidine tag expressed in E. coli and purified to homogeneity is incubated at a final concentration of 2 nM in assay buffer consisting of 37.5 mM phosphate buffer at pH6.5 supplemented with 10 mM ascorbic acid, 0.45 μM methylene blue, 50U/ml catalase, 0.01% BSA, and 0.01% Tween 20 (protocol modified from Seegers et al, JBS 2014). Example compounds are serially diluted in DMSO, further diluted in phosphate buffer, and added to the enzyme at final concentrations ranging from 10 μM to 0.5 nM. The final DMSO concentration is 0.6%. Following a pre-incubation of 30 minutes at RT, the reaction is started by the addition of L-tryptophan at a final concentration of 5 μM in assay buffer. After 30 minutes of incubation at RT, 3 μL of the 20 μl reaction mixture are transferred to a 384 deep well plate containing 25 μL of deionized water. 100 μl of 200 nM L-Tryptophan-(indole-d5) in cold 100% methanol are added followed by a 10 minutes centrifugation at 3220×g at 4° C. An additional 75 μL of deionized water are then added followed by a 10 minutes centrifugation at 3220×g at 4° C. The product of the reaction N′-Formylkynurenine (NFK) is quantified by LCMS and normalized to the L-Tryptophan-(indole-d5) signal. Samples with 0.6% DMSO (0% effect) and a TDO/IDO inhibitor (100% effect) are used as control samples to set the parameters for the non-linear regression necessary for the determination of the half-maximal inhibitory concentration (IC50) for each compound. For each compound concentration the percentage of activity compared to 0% and 100% effect is calculated as average±STDEV (each concentration measured in duplicate). IC50 values and curves are generated with XLfit software (IDBS) using Dose-Response One Site model 203 (four parameter logistic curve model). The calculated IC50 values may fluctuate depending on the daily assay performance. Fluctuations of this kind are known to those skilled in the art. When compounds are measured multiple times, mean values are given.

[2] = biological target: T2, Recombinant human TDO comprising amino acids 19-407 (Homo sapiens, UniProt P48775); assay: TDO2 enzymatic assay (NFK quantified by LCMS); format: biochemical; details: 15 nM enzyme, 200 μM L-tryptophan, pH7, 30 minutes pre-incubation at RT; mean values when measured multiple times; read-out: hTDO activity (IC50 in nM)
T2 construct: Recombinant human TDO comprising amino acids 19-407 with a N-terminal hexahistidine tag; hexahistidine (His6) (N); made in house; host or cells: E. coli
Protocol: 2) Testing Compounds for TDO Inhibitory Activity in a TDO2 Enzymatic Assay:
Recombinant human TDO comprising amino acids 19-407 with a N-terminal hexahistidine tag expressed in E. coli and purified to homogeneity is incubated at a final concentration of 15 nM in assay buffer consisting of 75 mM phosphate buffer at pH7 supplemented with 100 μM ascorbic acid, 50U/ml Catalase, 0.01% BSA, and 0.01% Tween 20 (protocol modified from Seegers et al, JBS 2014). Example compounds are serially diluted in DMSO, further diluted in phosphate buffer, and added to the reaction mixture at final concentrations ranging from 10 μM to 0.5 nM. The final DMSO concentration is 0.6%. Following a pre-incubation of 30 minutes at RT, the reaction is started by the addition of L-tryptophan at a final concentration of 200 μM in assay buffer. After 30 minutes of incubation at RT, 3 μL of the reaction mixture are transferred to a 384 deep well plate containing 25 μL of deionized water. 100 μl of 200 nM L-Tryptophan-(indole-d5) in cold 100% methanol are added followed by a 10 minutes centrifugation at 3220×g at 4° C. An additional 75 μL of deionized water are then added followed by a 10 minutes centrifugation at 3220×g at 4° C. The product of the reaction N′-Formylkynurenine (NFK) is quantified by LCMS and normalized to the L-Tryptophan-(indole-d5) signal. Samples with 0.6% DMSO (0% effect) and a TDO/IDO inhibitor (100% effect) are used as control samples to set the parameters for the non-linear regression necessary for the determination of the half-maximal inhibitory concentration (IC50) for each compound. For each compound concentration the percentage of activity compared to 0% and 100% effect is calculated as average±STDEV (each concentration measured in duplicate). IC50 values and curves are generated with XLfit software (IDBS) using Dose-Response One Site model 203 (four parameter logistic curve model). The calculated IC50 values may fluctuate depending on the daily assay performance. Fluctuations of this kind are known to those skilled in the art. When compounds are measured multiple times, mean values are given.

T1 sequence (P14902 whole entry): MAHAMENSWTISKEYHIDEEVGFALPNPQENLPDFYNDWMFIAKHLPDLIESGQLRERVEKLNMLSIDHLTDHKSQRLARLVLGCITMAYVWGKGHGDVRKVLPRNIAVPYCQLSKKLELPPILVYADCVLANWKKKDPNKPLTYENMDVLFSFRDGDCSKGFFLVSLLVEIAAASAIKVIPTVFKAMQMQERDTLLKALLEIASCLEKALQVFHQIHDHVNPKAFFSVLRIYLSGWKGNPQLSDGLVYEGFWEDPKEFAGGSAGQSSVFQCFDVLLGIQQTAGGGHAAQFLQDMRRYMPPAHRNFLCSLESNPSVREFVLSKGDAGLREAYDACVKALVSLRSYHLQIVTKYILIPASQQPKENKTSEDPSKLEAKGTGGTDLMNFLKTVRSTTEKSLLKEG
T2 sequence (P48775 19-406 limits assumed): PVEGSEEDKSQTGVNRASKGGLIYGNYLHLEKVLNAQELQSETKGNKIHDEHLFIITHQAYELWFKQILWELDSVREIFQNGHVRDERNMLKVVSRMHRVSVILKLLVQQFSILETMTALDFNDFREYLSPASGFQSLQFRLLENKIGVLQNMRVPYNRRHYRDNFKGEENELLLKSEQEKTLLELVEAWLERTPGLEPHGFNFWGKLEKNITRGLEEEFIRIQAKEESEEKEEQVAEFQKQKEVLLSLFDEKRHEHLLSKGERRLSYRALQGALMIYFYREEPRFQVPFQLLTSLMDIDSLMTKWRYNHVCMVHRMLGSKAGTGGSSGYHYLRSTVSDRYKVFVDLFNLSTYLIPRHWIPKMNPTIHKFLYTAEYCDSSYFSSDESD

IC50 [1] [nM] | IC50 [2] [nM] | SMILES
716 | > 10200 | OC(c1ccc(-c2cccc(C(F)(F)F)c2)s1)c1c(C2CC2)sc2cncn12 (racemic) [Example 165, rac-(2-Cyclopropyl-imidazo[5,1-b]thiazol-3-yl)-[5-(3-trifluoromethyl-phenyl)-thiophen-2-yl]-methanol]
36.1 | > 10200 | CC(C)Oc1ncc(-n2cc(C(O)c3c(C4CC4)sc4cncn34)nn2)cc1Cl (racemic) [Example 73, rac-[1-(5-Chloro-6-isopropoxy-pyridin-3-yl)-1H-[1,2,3]triazol-4-yl]-(2-cyclopropyl-imidazo[5,1-b]thiazol-3-yl)-methanol]
27.2 | > 10200 | Cc1cc(O)cc(-n2cc(C(O)c3c(C4CC4)sc4cncn34)nn2)c1 (racemic) [Example 220, rac-3-{4-[(2-Cyclopropyl-imidazo[5,1-b]thiazol-3-yl)-hydroxy-methyl]-[1,2,3]triazol-1-yl}-5-methyl-phenol]
24.3 | > 10200 | NS(=O)(=O)c1ccc(-n2cc(C(O)c3c(C4CC4)sc4cncn34)nn2)cc1 (racemic) [Example 235, rac-4-{4-[(2-Cyclopropyl-imidazo[5,1-b]thiazol-3-yl)-hydroxy-methyl]-[1,2,3]triazol-1-yl}-benzenesulfonamide]
11.7 | > 10200 | O[C@@H](c1cn(-c2ccccc2)nn1)c1c(C2CC2)sc2cncn12 [Example 2a, (R)-(2-Cyclopropyl-imidazo[5,1-b]thiazol-3-yl)-(1-phenyl-1H-[1,2,3]triazol-4-yl)-methanol]
4.29 | > 10200 | COc1ccc(-n2cc(C(O)c3c(C4CC4)sc4cncn34)nn2)cc1F (racemic) [Example 327, rac-(2-Cyclopropyl-imidazo[5,1-b]thiazol-3-yl)-[1-(3-fluoro-4-methoxy-phenyl)-1H-[1,2,3]triazol-4-yl]-methanol]
466 | 5440 | OC(c1cnn(-c2ccccc2)n1)c1c(C2CC2)sc2cncn12 (racemic) [Example 158, rac-(2-Cyclopropyl-imidazo[5,1-b]thiazol-3-yl)-(2-phenyl-2H-[1,2,3]triazol-4-yl)-methanol]
7.31 | > 10200 | CC(C)(O)CCOc1ccc(-n2cc([C@H](O)c3c(C4CC4)sc4cncn34)nn2)cc1 [Example 140a, 4-(4-{4-[(R)-(2-Cyclopropyl-imidazo[5,1-b]thiazol-3-yl)-hydroxy-methyl]-[1,2,3]triazol-1-yl}-phenoxy)-2-methyl-butan-2-ol]
8.83 | > 10200 | OC(c1cn(-c2ccc(OCC3CC3)cc2)nn1)c1c(C2CC2)sc2cncn12 (racemic) [Example 35, rac-(2-Cyclopropyl-imidazo[5,1-b]thiazol-3-yl)-[1-(4-cyclopropylmethoxy-phenyl)-1H-[1,2,3]triazol-4-yl]-methanol]
20.1 | > 10200 | CCc1sc2cncn2c1C(O)c1cn(-c2ccc(C(=O)NCCCOC)cc2)nn1 (racemic) [Example 126, rac-4-{4-[(2-Ethyl-imidazo[5,1-b]thiazol-3-yl)-hydroxy-methyl]-[1,2,3]triazol-1-yl}-N-(3-methoxy-propyl)-benzamide]
14.2 | > 10200 | CCOc1ncc(-n2cc(C(O)c3c(C4CC4)sc4cncn34)nn2)cn1 (racemic) [Example 65, rac-(2-Cyclopropyl-imidazo[5,1-b]thiazol-3-yl)-[1-(2-ethoxy-pyrimidin-5-yl)-1H-[1,2,3]triazol-4-yl]-methanol]
13.5 | > 10200 | N#Cc1cccc(-n2cc([C@H](O)c3c(C4CC4)sc4cncn34)nn2)c1 [Example 18a, 3-{4-[(R)-(2-Cyclopropyl-imidazo[5,1-b]thiazol-3-yl)-hydroxy-methyl]-[1,2,3]triazol-1-yl}-benzonitrile]
6.88 | > 10200 | CCc1sc2cncn2c1C(O)c1cn(-c2ccc(OCCC(C)(C)O)c(Cl)c2)nn1 (racemic) [Example 302, rac-4-(2-Chloro-4-{4-[(2-ethyl-imidazo[5,1-b]thiazol-3-yl)-hydroxy-methyl]-[1,2,3]triazol-1-yl}-phenoxy)-2-methyl-butan-2-ol]
122 | > 10200 | OC(c1nnc(-c2ccccc2)s1)c1c(C2CC2)sc2cncn12 (racemic) [Example 175, rac-(2-Cyclopropyl-imidazo[5,1-b]thiazol-3-yl)-(5-phenyl-[1,3,4]thiadiazol-2-yl)-methanol]
43.7 | 1440 | Cn1ccc2cc(-n3cc(C(O)c4c(C5CC5)sc5cncn45)cn3)cnc21 (racemic) [Example 229, rac-(2-Cyclopropyl-imidazo[5,1-b]thiazol-3-yl)-[1-(1-methyl-1H-pyrrolo[2,3-b]pyridin-5-yl)-1H-pyrazol-4-yl]-methanol]
17.9 | > 10200 | COc1ccc(-n2cc(C(O)c3c(C4CC4)sc4cncn34)nn2)c(C)c1 (racemic) [Example 306, rac-(2-Cyclopropyl-imidazo[5,1-b]thiazol-3-yl)-[1-(4-methoxy-2-methyl-phenyl)-1H-[1,2,3]triazol-4-yl]-methanol]
14.2 | 6940 | COc1ccc(-n2nnc(C(O)c3c(C)sc4cncn34)c2C)cc1 (racemic) [Example 255, rac-[1-(4-Methoxy-phenyl)-5-methyl-1H-[1,2,3]triazol-4-yl]-(2-methyl-imidazo[5,1-b]thiazol-3-yl)-methanol]
1100 | > 10200 | CC(=O)Nc1ccc(-n2cc(C(O)c3c(C4CC4)sc4cncn34)cn2)cc1 (racemic) [Example 224, rac-N-(4-{4-[(2-Cyclopropyl-imidazo[5,1-b]thiazol-3-yl)-hydroxy-methyl]-pyrazol-1-yl}-phenyl)-acetamide]
14.9 | > 10200 | NC(=O)c1ccc(-n2cc(C(O)c3c(C4CC4)sc4cncn34)nn2)cc1 (racemic) [Example 185, rac-4-{4-[(2-Cyclopropyl-imidazo[5,1-b]thiazol-3-yl)-hydroxy-methyl]-[1,2,3]triazol-1-yl}-benzamide]
13.3 | > 10200 | OC(c1cn(-c2ccc(OCCC3(O)CC3)cc2)nn1)c1c(C2CC2)sc2cncn12 (racemic) [Example 142, rac-1-[2-(4-{4-[(2-Cyclopropyl-imidazo[5,1-b]thiazol-3-yl)-hydroxy-methyl]-[1,2,3]triazol-1-yl}-phenoxy)-ethyl]-cyclopropanol]
122 | > 10200 | OCCCOc1ccc(-n2cc(C(O)c3c(-c4ccccc4)sc4cncn34)nn2)cc1Cl (racemic) [Example 267, rac-3-(2-Chloro-4-{4-[hydroxy-(2-phenyl-imidazo[5,1-b]thiazol-3-yl)-methyl]-[1,2,3]triazol-1-yl}-phenoxy)-propan-1-ol]

Source: patent US20200405696A1, “INHIBITORS OF INDOLEAMINE 2,3-DIOXYGENASE AND/OR TRYPTOPHAN 2,3-DIOXYGENASE” (IDORSIA PHARMACEUTICALS LTD, priority 2018, published 2020)
